Laboratory results reported in patent US20110070232A1, “Combination Therapy with an Antitumor Alkaloid” (Pharma Mar, S.A., priority 2008, published 2011).
Values after ≈ are worked out from the molar mass of the structure shown. Like-named read-outs stand apart in the source and are kept apart here.

What was measured:
[1] = system: Hs746T human gastric carcinoma cell line; assay: IC50 determination, MTS assay, 72 h (Example 1); assay type: cell-based; settings: Homo sapiens, 72 hours of drug exposure, read-out: IC50
Procedure: (§1) The human gastric carcinoma cell lines selected for this assay were the following: Hs746T, HGC-27, and AGS cell lines. Hs746T and AGS cell lines were grown in Dulbecco's modified Eagle's medium (DMEM) supplemented with 10% Fetal Bovine Serum (FBS), 1.5 g/L sodium bicarbonate, 4.5 g/L glucose and 4 mM L-glutamine. HGC-27 cell line was grown in Iscove's modified Dulbecco's medium (IMDM) supplemented with 20% FBS and 2 mM L-glutamine.
(§2) The day before plating, the cells were fed with fresh, complete growth media. On the harvest (plating) day, cells were counted by Trypan Blue exclusion staining method.
(§3) Cells were harvested and seeded in 96 well microtiter plates at 10,000 cells density in 150 μL of media and incubated for 24 hours to allow the cells to attach before drug addition. To collect reference data, the MTS assay was done on untreated cells at time 0 (after incubation of cells for 24 hours).
(§4) The cytotoxic effect was measured by the MTS Assay (Tetrazolium), which is a colorimetric method for determining the number of viable cells. After the incubation period (24 hours for the Day 0 plate and 72 hours for the Test and Control plates), 25 μL of MTS+PMS solution was added to each microtiter well and incubated for 4 hours at 37° C. Plates were then removed from incubator and placed on plate shaker for 5 minutes (covered with aluminum foil for protection from light). Optical densities were read at 490 nm on spectrophotometer plate reader.
(§5) IC50 values were calculated from an average of two to four assays for each of the test agents.

[2] = system: AGS human gastric carcinoma cell line; assay: IC50 determination, MTS assay, 72 h (Example 1); assay type: cell-based; settings: Homo sapiens, 72 hours of drug exposure, read-out: IC50
Procedure: as §1, §2, §3, §4, §5

[3] = system: HGC-27 human gastric carcinoma cell line; assay: IC50 determination, MTS assay, 72 h (Example 1); assay type: cell-based; settings: Homo sapiens, 72 hours of drug exposure, read-out: IC50
Procedure: as §1, §2, §3, §4, §5

MRI-H-254 tumors = assay type: in vivo, mice
Procedure: Female athymic nude mice (Harlan Sprague Dawley, Madison, Wis.) were utilized for all experiments. Animals were housed in ventilated rack caging with food and water ad libitum. The mice were acclimated for at least 5 days prior to tumor implantation with tumor fragments.
Treatments were initiated on DPI 20.
(§6) Tumor size measurements were recorded twice weekly from the treatment initiation until the termination of the study.
(§7) Mean, standard deviation and standard error of the mean were determined for tumor volume for all animal groups at all assessments. Student's t test was performed on tumor volumes at each measurement day, including at the end of the study, to determine whether there were any statistically significant differences between combination treatment groups and single monotherapy treatment groups.

Hs746T tumors = assay type: in vivo, mice; settings: for % T/C on day 14 / % T/C on day 19 / % T/C on day 22 / % T/C on day 26 / % T/C on day 29 / % T/C on day 32 / % T/C on day 39: PM00104 0.90 IV, DPI 14, 21, 28
Procedure: Female athymic nude mice (Harlan Sprague Dawley, Madison, Wis.) were utilized for all experiments. Animals were housed in ventilated rack caging with food and water ad libitum. The mice were acclimated for at least 5 days prior to tumor implantation with a tumor cell suspension.
The tumor model used in these studies was Hs746T cell line, which was obtained from the ATCC (Manassas, Va.).
Treatments were initiated on DPI 14.
as §6, §7

[4] = PM00104 0.90 IV, docetaxel 8 IP, oxaliplatin 4 IP mg/kg/day (G4, G6, G8, G10), DPI 20, 27, 34
[5] = PM00104 0.90 IV, docetaxel 16 IP, oxaliplatin 8 IP mg/kg/day (G2, G3, G5, G7, G9), DPI 20, 27, 34
[6] = docetaxel 8 IP, oxaliplatin 4 IP mg/kg/day (G4, G6, G8, G10)
[7] = docetaxel 16 IP, oxaliplatin 8 IP mg/kg/day (G2, G3, G5, G7, G9)

CC(=O)O[C@@]12CO[C@@H]1C[C@H](O)[C@@]1(C)C(=O)[C@H](O)C3=C(C)[C@@H](OC(=O)[C@H](O)[C@@H](NC(=O)OC(C)(C)C)c4ccccc4)C[C@@](O)([C@@H](OC(=O)c4ccccc4)[C@H]21)C3(C)C [Docetaxel, docetaxel]
IC50 [1]: 44.2 mg/L (≈ 54.7 µM) | IC50 [2]: 1.99 mg/L (≈ 2.46 µM) | IC50 [3]: 6.54 mg/L (≈ 8.1 µM) | % T/C on day 20 (MRI-H-254 tumors; [4]): 97.7% | % T/C on day 23 (MRI-H-254 tumors; [4]): 122.8% | % T/C on day 27 (MRI-H-254 tumors; [4]): 93.1% | % T/C on day 30 (MRI-H-254 tumors; [4]): 102.6% | % T/C on day 33 (MRI-H-254 tumors; [4]): 114.1% | % T/C on day 36 (MRI-H-254 tumors; [4]): 119.2% | % T/C on day 40 (MRI-H-254 tumors; [4]): 120.1% | % T/C on day 48 (MRI-H-254 tumors; [4]): 97.3% | % T/C on day 20 (MRI-H-254 tumors; [5]): 101.4% | % T/C on day 23 (MRI-H-254 tumors; [5]): 115.4% | % T/C on day 27 (MRI-H-254 tumors; [5]): 90.9% | % T/C on day 33 (MRI-H-254 tumors; [5]): 115.8% | % T/C on day 36 (MRI-H-254 tumors; [5]): 108.4% | % T/C on day 40 (MRI-H-254 tumors; [5]): 100.4% | % T/C on day 48 (MRI-H-254 tumors; [5]): 76.7% | % Inhibition (MRI-H-254 tumors; day 20, PM00104 0.9 and docetaxel 8 mg/kg/day): 2.3% | % Inhibition (MRI-H-254 tumors; day 20, PM00104 0.9 and docetaxel 16 mg/kg/day): −1.4% | % Inhibition (MRI-H-254 tumors; day 23, PM00104 0.9 and docetaxel 8 mg/kg/day): −22.8% | % Inhibition (MRI-H-254 tumors; day 23, PM00104 0.9 and docetaxel 16 mg/kg/day): −15.4% | % Inhibition (MRI-H-254 tumors; day 27, PM00104 0.9 and docetaxel 8 mg/kg/day): 6.9% | % Inhibition (MRI-H-254 tumors; day 27, PM00104 0.9 and docetaxel 16 mg/kg/day): 9.1% | % Inhibition (MRI-H-254 tumors; day 30, PM00104 0.9 and docetaxel 8 mg/kg/day): −2.6% | % Inhibition (MRI-H-254 tumors; day 30, PM00104 0.9 and docetaxel 16 mg/kg/day): −17.1% | % Inhibition (MRI-H-254 tumors; day 33, PM00104 0.9 and docetaxel 8 mg/kg/day): −14.1% | % Inhibition (MRI-H-254 tumors; day 33, PM00104 0.9 and docetaxel 16 mg/kg/day): −15.8% | % Inhibition (MRI-H-254 tumors; day 36, PM00104 0.9 and docetaxel 8 mg/kg/day): −19.2% | % Inhibition (MRI-H-254 tumors; day 36, PM00104 0.9 and docetaxel 16 mg/kg/day): −8.4% | % Inhibition (MRI-H-254 tumors; day 40, PM00104 0.9 and docetaxel 8 mg/kg/day): −20.1% | % Inhibition (MRI-H-254 tumors; day 40, PM00104 0.9 and docetaxel 16 mg/kg/day): −0.4% | % Inhibition (MRI-H-254 tumors; day 48, PM00104 0.9 and docetaxel 8 mg/kg/day): 2.7% | % Inhibition (MRI-H-254 tumors; day 48, PM00104 0.9 and docetaxel 16 mg/kg/day): 23.3% | % T/C on day 14 (Hs746T tumors; [6]): 100.8% | % T/C on day 19 (Hs746T tumors; [6]): 49.0% | % T/C on day 22 (Hs746T tumors; [6]): 41.6% | % T/C on day 26 (Hs746T tumors; [6]): 32.5% | % T/C on day 29 (Hs746T tumors; [6]): 29.4% | % T/C on day 32 (Hs746T tumors; [6]): 39.4% | % T/C on day 39 (Hs746T tumors; [6]): 55.1% | % T/C on day 14 (Hs746T tumors; [7]): 100.3% | % T/C on day 19 (Hs746T tumors; [7]): 33.6% | % T/C on day 22 (Hs746T tumors; [7]): 21.3% | % T/C on day 26 (Hs746T tumors; [7]): 7.2% | % T/C on day 29 (Hs746T tumors; [7]): 3.5% | % T/C on day 32 (Hs746T tumors; [7]): 1.5% | % T/C on day 39 (Hs746T tumors; [7]): −0.6% | % Inhibition (Hs746T tumors; day 14, PM00104 0.9 and docetaxel 8 mg/kg/day): −0.8% | % Inhibition (Hs746T tumors; day 14, PM00104 0.9 and docetaxel 16 mg/kg/day): −0.3% | % Inhibition (Hs746T tumors; day 19, PM00104 0.9 and docetaxel 8 mg/kg/day): 51.0% | % Inhibition (Hs746T tumors; day 19, PM00104 0.9 and docetaxel 16 mg/kg/day): 66.4% | % Inhibition (Hs746T tumors; day 22, PM00104 0.9 and docetaxel 8 mg/kg/day): 58.4% | % Inhibition (Hs746T tumors; day 22, PM00104 0.9 and docetaxel 16 mg/kg/day): 78.7% | % Inhibition (Hs746T tumors; day 26, PM00104 0.9 and docetaxel 8 mg/kg/day): 67.5% | % Inhibition (Hs746T tumors; day 26, PM00104 0.9 and docetaxel 16 mg/kg/day): 92.8% | % Inhibition (Hs746T tumors; day 29, PM00104 0.9 and docetaxel 8 mg/kg/day): 70.6% | % Inhibition (Hs746T tumors; day 29, PM00104 0.9 and docetaxel 16 mg/kg/day): 96.5% | % Inhibition (Hs746T tumors; day 32, PM00104 0.9 and docetaxel 8 mg/kg/day): 60.6% | % Inhibition (Hs746T tumors; day 32, PM00104 0.9 and docetaxel 16 mg/kg/day): 98.5% | % Inhibition (Hs746T tumors; day 39, PM00104 0.9 and docetaxel 8 mg/kg/day): 44.9% | % Inhibition (Hs746T tumors; day 39, PM00104 0.9 and docetaxel 16 mg/kg/day): 100.6%
